Experimental data from ChEMBL document CHEMBL1201862, “PubChem BioAssay data set” (2004).
“And” between values parts separate entries of the source, which are not always exact repeats. Equal entries are not always repeated. The source made the active and inactive calls.

Columns and labels:
[1] = target: Heat shock protein HSP 90-alpha (Homo sapiens, UniProt P07900); type: functional, organism-based
BJ = assay: cells; type: functional, cell-based; conditions: Homo sapiens
[2] = target: Bifunctional protein GlmU (Mycobacterium tuberculosis, UniProt P9WMN3); assay: Inhibitors of Mycobacterial Glucosamine-1-phosphate acetyl transferase (GlmU). Secondary screen.; set-up: species or system Mycobacterium tuberculosis H37Rv
Bifunctional protein GlmU, sequence (P9WMN3 whole entry): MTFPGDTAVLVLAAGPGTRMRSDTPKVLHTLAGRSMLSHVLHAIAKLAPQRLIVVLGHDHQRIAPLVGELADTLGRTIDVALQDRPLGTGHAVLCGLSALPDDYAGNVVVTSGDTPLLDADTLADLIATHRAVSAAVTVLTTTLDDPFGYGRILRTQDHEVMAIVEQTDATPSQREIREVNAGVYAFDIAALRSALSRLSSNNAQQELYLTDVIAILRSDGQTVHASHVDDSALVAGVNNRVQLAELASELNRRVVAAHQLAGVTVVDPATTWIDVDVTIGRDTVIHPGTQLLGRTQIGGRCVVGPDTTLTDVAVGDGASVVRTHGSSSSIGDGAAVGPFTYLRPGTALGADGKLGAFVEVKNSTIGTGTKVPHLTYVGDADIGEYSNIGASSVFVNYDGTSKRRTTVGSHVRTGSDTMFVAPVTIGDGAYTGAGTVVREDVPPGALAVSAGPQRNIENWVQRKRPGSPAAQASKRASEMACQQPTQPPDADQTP

Genome polyprotein = Genome polyprotein (Hepatitis C virus, UniProt Q2Q167); assay: disruption of hepatitis C core self-association – biochemical, TR-FRET, dose response (AID 2159); set-up: species or system Hepacivirus hominis;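 also: blocks dimerization of HCV core protein measured by TR-FRET between tagged core106 pairs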
Genome polyprotein, sequence (Q2Q167 whole entry): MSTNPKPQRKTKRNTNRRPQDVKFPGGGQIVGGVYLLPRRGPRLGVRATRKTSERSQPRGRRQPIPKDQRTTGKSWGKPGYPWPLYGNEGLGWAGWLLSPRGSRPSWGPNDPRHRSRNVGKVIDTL

Cytochrome P450 2C19 = Cytochrome P450 2C19 (Homo sapiens, UniProt P33261); assay: Cytochrome panel assay with activity outcomes. Panel member name: p450-cyp2c19 Compounds with AC50 equal or less than 10 uM are considered active; type: functional; conditions: read-out: AC50
Cytochrome P450 2C19, sequence (P33261 whole entry): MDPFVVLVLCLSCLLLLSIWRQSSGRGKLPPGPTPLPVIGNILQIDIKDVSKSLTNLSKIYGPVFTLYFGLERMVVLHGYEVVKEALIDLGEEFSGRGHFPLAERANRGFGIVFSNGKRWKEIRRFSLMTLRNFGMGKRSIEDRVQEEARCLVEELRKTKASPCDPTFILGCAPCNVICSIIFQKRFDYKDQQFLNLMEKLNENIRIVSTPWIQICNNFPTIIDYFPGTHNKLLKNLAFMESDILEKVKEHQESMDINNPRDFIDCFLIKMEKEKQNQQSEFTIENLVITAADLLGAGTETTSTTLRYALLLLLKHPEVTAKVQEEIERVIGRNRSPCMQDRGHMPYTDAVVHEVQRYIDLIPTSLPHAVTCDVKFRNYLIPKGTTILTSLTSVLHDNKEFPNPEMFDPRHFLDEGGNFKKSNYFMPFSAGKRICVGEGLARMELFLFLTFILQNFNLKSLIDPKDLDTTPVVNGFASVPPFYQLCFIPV

[3] = viability of PTEN-deleted HCT116 cells – cell-based, HCT116 PTEN knockout, dose response (AID 1047); type: functional;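 also: HCT116 colon tumor cells with PTEN knocked out; cells exposed to compound for 60 hours before readout; potency for loss of cell viability measured by luminescence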
[4] = target: T1, Tyrosine-protein phosphatase non-receptor type 22 (Homo sapiens, UniProt Q9Y2R2); assay: lymphoid phosphatase LYP inhibitors – biochemical, selectivity assay for STEP inhibitor project, dose response (AID 624241); type: functional
T1 sequence (Q9Y2R2 whole entry): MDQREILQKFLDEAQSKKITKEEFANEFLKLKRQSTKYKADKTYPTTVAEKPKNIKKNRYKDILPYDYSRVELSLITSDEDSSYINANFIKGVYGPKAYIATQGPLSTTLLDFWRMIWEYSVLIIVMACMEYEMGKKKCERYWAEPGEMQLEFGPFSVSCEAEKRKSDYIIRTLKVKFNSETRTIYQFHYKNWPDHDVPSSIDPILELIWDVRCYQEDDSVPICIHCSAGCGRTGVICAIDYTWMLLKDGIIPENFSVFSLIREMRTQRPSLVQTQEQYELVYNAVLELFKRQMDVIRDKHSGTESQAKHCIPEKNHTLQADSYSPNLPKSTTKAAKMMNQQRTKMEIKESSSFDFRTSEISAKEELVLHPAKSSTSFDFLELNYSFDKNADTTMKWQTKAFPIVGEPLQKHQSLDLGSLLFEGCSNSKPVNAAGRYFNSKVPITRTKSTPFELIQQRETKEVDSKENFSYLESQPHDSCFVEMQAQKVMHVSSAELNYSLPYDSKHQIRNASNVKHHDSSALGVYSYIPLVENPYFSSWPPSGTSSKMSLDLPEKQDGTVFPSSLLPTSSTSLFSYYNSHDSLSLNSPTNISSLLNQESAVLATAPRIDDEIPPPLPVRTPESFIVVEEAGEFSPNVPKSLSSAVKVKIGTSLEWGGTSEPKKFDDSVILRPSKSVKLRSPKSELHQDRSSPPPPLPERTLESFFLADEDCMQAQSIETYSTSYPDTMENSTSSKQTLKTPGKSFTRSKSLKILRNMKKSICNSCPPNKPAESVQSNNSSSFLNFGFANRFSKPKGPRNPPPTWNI

[5] = target: T2, Tyrosine-protein phosphatase non-receptor type 11 (Homo sapiens, UniProt Q06124); assay: PTPN11 enzyme inhibitors – biochemical, selectivity assay for STEP inhibitor project, dose response (AID 602367); type: functional; conditions: read-out: IC50_Mean
T2 sequence (Q06124 whole entry): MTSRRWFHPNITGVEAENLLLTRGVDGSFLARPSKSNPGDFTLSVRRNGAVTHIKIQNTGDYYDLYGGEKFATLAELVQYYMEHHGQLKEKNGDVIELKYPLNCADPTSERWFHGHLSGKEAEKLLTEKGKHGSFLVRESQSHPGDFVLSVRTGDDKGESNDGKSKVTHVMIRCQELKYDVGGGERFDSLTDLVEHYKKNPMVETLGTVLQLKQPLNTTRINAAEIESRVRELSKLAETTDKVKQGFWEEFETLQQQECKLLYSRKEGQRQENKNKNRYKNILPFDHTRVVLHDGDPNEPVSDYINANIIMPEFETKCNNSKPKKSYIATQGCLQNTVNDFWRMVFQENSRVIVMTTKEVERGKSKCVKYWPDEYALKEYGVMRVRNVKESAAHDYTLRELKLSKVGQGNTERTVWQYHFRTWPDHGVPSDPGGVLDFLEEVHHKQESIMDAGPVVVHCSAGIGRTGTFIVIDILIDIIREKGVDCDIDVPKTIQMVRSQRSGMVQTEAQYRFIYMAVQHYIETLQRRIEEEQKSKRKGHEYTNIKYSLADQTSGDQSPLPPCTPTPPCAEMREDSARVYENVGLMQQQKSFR

[6] = target: T1, Tyrosine-protein phosphatase non-receptor type 22; assay: PTPN22 lymphoid phosphatase activity blockers – biochemical, fluorescence intensity, uHTS (AID 1779)
[7] = target: T3, Tyrosine-protein phosphatase non-receptor type 7 (Homo sapiens, UniProt P35236); assay: HTS HePTP Fluorescent Assay using OMFP substrate for In Vitro dose response studies. [Related pubchem assays (depositor defined):AID1059, AID1077, AID1784, AID2068, AID2085, AID435032, AID521]; type: functional
T3 sequence (P35236 whole entry): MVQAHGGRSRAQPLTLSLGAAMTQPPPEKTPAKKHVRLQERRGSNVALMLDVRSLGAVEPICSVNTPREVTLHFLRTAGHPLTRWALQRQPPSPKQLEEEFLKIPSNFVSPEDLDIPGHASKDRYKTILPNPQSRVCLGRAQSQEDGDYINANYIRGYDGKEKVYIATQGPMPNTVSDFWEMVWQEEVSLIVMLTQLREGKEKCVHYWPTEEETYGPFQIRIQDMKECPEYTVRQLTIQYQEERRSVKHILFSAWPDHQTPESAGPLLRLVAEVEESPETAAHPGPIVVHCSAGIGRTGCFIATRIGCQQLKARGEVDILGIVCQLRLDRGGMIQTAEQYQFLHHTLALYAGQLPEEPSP

[8] = target: T1, Tyrosine-protein phosphatase non-receptor type 22; assay: SAR LYP1 Fluorescent Assay using OMFP substrate for In Vitro dose response studies - Set 3. [Related pubchem assays (depositor defined):AID1779, AID1784, AID2140, AID2686]; type: functional
[9] = target: T1, Tyrosine-protein phosphatase non-receptor type 22; assay: LYP1 Fluorescent Assay using OMFP substrate for In Vitro dose response studies. [Related pubchem assays (depositor defined):AID1779, AID1784, AID435024]
[10] = target: Voltage-gated N-type calcium channel alpha-1B subunit/Amyloid beta A4 precursor protein-binding family A member 1 (Homo sapiens, UniProt Q00975+Q02410); type: protein assay
Voltage-gated N-type calcium channel alpha-1B subunit/Amyloid beta A4 precursor protein-binding family A member 1, sequence (Q00975 whole entry): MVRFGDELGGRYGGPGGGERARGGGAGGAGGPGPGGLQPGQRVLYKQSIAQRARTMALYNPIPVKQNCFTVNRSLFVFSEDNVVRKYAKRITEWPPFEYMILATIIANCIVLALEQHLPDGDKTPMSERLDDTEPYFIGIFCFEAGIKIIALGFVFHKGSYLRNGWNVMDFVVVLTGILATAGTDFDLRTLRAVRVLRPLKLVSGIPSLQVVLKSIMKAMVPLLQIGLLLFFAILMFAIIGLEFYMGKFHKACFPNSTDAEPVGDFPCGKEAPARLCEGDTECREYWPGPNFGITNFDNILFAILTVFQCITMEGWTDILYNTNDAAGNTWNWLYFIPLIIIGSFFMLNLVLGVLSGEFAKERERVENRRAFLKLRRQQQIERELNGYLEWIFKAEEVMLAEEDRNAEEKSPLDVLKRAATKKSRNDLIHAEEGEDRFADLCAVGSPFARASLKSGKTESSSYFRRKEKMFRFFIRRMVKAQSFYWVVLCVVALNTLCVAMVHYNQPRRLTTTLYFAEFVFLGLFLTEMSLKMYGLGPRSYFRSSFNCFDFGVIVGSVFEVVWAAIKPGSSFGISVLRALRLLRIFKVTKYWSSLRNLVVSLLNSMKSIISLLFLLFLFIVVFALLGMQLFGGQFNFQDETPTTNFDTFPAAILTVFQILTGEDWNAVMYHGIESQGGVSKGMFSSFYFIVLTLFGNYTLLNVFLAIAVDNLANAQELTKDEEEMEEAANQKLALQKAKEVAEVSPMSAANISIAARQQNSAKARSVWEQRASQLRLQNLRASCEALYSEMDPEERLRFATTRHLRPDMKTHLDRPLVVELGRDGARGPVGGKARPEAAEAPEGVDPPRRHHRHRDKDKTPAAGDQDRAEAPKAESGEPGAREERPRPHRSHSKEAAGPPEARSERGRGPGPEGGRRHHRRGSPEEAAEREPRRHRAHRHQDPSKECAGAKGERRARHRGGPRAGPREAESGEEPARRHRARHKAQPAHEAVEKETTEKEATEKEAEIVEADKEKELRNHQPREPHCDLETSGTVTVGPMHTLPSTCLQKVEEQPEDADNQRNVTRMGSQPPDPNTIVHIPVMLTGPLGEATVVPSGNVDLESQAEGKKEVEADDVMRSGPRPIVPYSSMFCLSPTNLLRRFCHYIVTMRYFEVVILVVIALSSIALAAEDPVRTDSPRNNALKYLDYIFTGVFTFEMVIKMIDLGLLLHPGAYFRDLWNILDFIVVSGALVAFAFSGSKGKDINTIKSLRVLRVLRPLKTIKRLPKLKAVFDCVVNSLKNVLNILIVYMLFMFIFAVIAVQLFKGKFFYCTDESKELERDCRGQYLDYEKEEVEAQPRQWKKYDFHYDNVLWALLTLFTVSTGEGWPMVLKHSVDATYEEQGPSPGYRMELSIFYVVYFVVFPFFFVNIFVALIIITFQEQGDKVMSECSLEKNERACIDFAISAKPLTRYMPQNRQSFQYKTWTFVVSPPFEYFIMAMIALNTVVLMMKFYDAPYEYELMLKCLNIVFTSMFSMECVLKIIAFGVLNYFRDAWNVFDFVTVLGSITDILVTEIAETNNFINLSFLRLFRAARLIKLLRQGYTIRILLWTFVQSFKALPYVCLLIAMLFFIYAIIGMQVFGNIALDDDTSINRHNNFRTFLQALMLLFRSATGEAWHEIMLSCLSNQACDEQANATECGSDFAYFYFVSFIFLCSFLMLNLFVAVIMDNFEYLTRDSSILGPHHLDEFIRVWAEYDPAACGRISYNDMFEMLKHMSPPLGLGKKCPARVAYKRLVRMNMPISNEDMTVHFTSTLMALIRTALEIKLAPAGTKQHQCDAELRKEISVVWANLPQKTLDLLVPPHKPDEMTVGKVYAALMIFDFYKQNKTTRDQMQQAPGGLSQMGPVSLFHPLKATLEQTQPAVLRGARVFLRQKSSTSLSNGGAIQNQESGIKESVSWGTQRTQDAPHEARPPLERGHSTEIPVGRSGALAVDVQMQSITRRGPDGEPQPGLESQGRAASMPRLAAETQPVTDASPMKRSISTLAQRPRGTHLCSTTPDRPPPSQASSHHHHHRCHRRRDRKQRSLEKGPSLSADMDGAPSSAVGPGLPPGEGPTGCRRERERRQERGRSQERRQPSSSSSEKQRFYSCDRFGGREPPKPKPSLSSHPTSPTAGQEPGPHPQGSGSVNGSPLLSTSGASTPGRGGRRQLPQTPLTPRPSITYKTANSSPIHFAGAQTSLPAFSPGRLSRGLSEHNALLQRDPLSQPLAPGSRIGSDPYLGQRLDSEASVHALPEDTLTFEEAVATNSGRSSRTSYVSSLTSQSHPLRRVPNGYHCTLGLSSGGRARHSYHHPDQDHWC
Voltage-gated N-type calcium channel alpha-1B subunit/Amyloid beta A4 precursor protein-binding family A member 1, sequence (Q02410 whole entry): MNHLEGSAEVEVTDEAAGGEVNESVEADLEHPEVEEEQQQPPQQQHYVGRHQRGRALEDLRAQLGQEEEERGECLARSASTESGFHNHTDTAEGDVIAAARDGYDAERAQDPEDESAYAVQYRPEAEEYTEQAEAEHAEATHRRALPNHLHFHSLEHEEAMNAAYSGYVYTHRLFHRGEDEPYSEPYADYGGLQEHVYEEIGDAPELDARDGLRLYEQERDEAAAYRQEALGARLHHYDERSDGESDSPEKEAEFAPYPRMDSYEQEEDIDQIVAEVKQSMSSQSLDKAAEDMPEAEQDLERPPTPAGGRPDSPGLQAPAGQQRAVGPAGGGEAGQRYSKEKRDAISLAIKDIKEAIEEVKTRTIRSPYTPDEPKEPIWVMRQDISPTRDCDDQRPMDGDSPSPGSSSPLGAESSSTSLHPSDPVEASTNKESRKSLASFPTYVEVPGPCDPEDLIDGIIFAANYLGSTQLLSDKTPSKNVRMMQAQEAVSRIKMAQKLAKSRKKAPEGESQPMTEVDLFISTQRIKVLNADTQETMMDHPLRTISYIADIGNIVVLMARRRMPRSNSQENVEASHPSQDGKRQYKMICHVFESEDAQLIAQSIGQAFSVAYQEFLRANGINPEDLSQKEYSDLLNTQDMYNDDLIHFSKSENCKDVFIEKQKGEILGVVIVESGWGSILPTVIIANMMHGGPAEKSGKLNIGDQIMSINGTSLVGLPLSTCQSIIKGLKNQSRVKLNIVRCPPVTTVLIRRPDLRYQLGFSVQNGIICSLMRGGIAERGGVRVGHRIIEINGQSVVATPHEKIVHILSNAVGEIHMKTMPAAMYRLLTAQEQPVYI

Question: For `CCN1/C(=C/c2ccc3cc(C)ccc3[n+]2CC)Sc2cc(C)c(C)cc21`, which EC50 (cells) is on record?
Answer: 0.046 µM (active)

Question: And the AC50 [1]?
Answer: 4.16 µM (active) and 2.67 µM (active)

Question: And the EC50 (BJ)?
Answer: 2.34 µM (active)

Question: With `Nc1ccc2nc3c(O)nc(S)nc3nc2c1` as the compound, how does the IC50 [2] read?
Answer: 14 µM (active)

Question: And the IC50 (Genome polyprotein)?
Answer: > 49.8 µM (not active)

Question: Which AC50 (Cytochrome P450 2C19) does the source give for `COc1ccc(C(=O)Nc2nc3c(s2)Cc2cc(OC)ccc2-3)cc1` here?
Answer: 5.01 µM (inconclusive)

Question: Which EC50 [3] does the source give for `Cc1oc2c(c1C(=O)c1ccccc1)C(=O)C(=O)c1ccccc1-2` here?
Answer: 2.64 µM (active)

Question: Which IC50 [4] does the source give for `CSc1ccc(C=NNc2ccc(S(=O)(=O)Nc3ccccc3C(=O)O)cc2[N+](=O)[O-])cc1` here?
Answer: 2.82 µM (active)

Question: And the IC50 [5]?
Answer: 1.11 µM (active)

Question: Which results are given for `O=C(O)COc1ccc(/C=N/NC(=O)c2ccc(-c3csc(Nc4ccc(Cl)cc4)n3)cc2)cc1`?
Answer: IC50 [6]: > 99 µM (inactive); IC50 [7]: > 99 µM (inactive); IC50 [8]: 0.626 µM (active); IC50 [9]: > 99 µM (inactive); IC50 [10]: > 50 µM (inactive)
